Data reported in patent publication US7056491B2, “Monoterpenes and sesquiterpenes as chemotherapeutic and radiation sensitizers and immunomodulators” (Wisconsin Alumni Research Foundation, priority 2000, dated 2006).
Where two headings read alike, the source gives them in different places.

Assays:
MO59K cells = test: Clonogenic survival assay, POH with or without radiation, MO59K; format: cell-based, human; settings: for % SURVIVAL: MO59K
Procedure: Subconfluent cultures of human glioma cell line MO 59K were treated with 0.1–0.5 mM of POH for 72 hours and subsequently to increasing doses of radiation from 0.1 Gy to 8.5 Gy. Control cells were treated with the indicated doses of radiation alone. The cells were harvested and an optimum number of cells were allowed to grow for 14 days. The resulting colonies were stained and counted. Each graphed point represents mean values ± SE values of triplicate dishes.
(§1) Table 1 summarizing data from different cell lines treated with radiation, radiation plus POH, and POH alone. Subconfluent cultures of human glioma (T98G, M059K, U251), prostate (DU145, PC3), colon (DLD-1, HT29) and pancreatic (MIAPACA) cancer cell lines were treated with 0.1–0.5 mM of POH for 72 hours and subsequently to increasing doses of radiation from 0.1 Gy to 8.5 Gy. Control cells were treated with medium alone. The cells were harvested and an optimum number of cells were allowed to grow for 14 days. The resulting colonies were stained and counted. Each graphed point represents mean values ± SE values of triplicate dishes. Percentage survival was determined as the ratio of plating efficiencies for each irradiated group to that of the unirradiated control.

[1] = rats, 2% POH diet for 10 weeks; cited from earlier work
Fas receptor = Fas receptor (CD95) staining by flow cytometry; format: cell-based, human; settings: 0.1 mM–1 mM POH 72 hours; same cell lines except U87MG
Procedure: The cells were harvested using cell dissociation solution, and the resulting cell pellet was washed and incubated with biotinylated anti-human antibody, which served as a control to eliminate non-specific binding. Following the primary antibody incubation the cells were washed and subsequently stained with secondary antibody conjugated to phycoerythrin (PE) (PharMingen) and antibody to CD95 directly conjugated to allophycocyanin (APC). The stained cells were analyzed using a Beckton-Dickinson FACStar plus and the results were acquired using CELLquest software.
Subconfluent cultures of the indicated glioma (T98G, U251, U353, U87MG), prostate (DU145, PC3), colon (DLD-1) and melanoma (Mel5) cell lines were treated with varying concentrations of POH (0.1 mM–1 mM POH) dissolved in medium for 72 hours. At the end of the incubation, the cells were harvested using cell dissociation solution, and the resulting cell pellet was washed and incubated with biotinylated anti-human antibody to the FasL (PharMingen) or with an isotype matched anti-human antibody, which served as a control to eliminate non-specific binding. […] The stained cells were analyzed using a Beckton-Dickinson FACStar plus and the results were acquired using CELLquest. […]

T98G cells = test: Clonogenic survival, POH pretreatment then cisplatin, T98G; format: cell-based, human; settings: POH 0.1 mM–0.5 mM 48 hours then cisplatin 0.05 uM–1 uM 48 hours
Procedure: Referring to FIG. 28, subconfluent cells of T98G cells were treated with varying concentrations of perillyl alcohol (0.1 mM–0.5 mM) for 48 hours and subsequently treated with the indicated dose of cisplatin (0.05 uM–1 uM) for 48 hours. At the end of the treatment, POH pretreated and untreated cells in the presence and absence of cisplatin, were harvested, washed with PBS, plated at the desired cell number and incubated for two weeks. The colonies were stained with crystal violet and quantitated. Survival was determined as the ratio of plating efficiencies for each irradiated group to that of the untreated control.

[2] = test system: Fas-sensitive Jurkat cell line; test: Cell death of Jurkat cells incubated with POH-treated T98G; format: cell-based; settings: T98G treated 0.1 mM–0.5 mM 48 hours, then Jurkat 48 hours
Procedure: Referring to FIG. 27, subconfluent cells of T98G cells were treated with varying concentrations of perillyl alcohol (0.1 mM–0.5 mM) for 48 hours. At the end of the incubation the media was changed, cells from a Fas-sensitive Jurkat cell line were added to the plate, and the incubation was continued further for 48 hours. At the end of the incubation the target cells (Jurkat) were harvested, washed and the cell viability was assessed.

DLD-1 colon cancer cells = test: Clonogenic survival assay, POH with or without radiation, DLD-1; format: cell-based, human
Procedure: as §1

[3] = test system: glioma, prostate, colon and melanoma cell lines; test: Apoptosis by flow cytometry of propidium iodide stained cells (sub G0/G1 peak); format: cell-based, human; settings: 72 hours
Text: In the present study we evaluated the effect of POH treatment on a panel of human glioma (T98G, MO59K, U-87, U-373, U-251), prostate cancer cell lines (PC3 and DU145), colon (DLD-1, HT29), melanoma (Mel5, M21).

[4] = test system: glioma, prostate, melanoma and colon cell lines; test: Cell cycle analysis by propidium iodide flow cytometry; format: cell-based; settings: 1 mM POH 72 hours
Procedure: The indicated glioma (T98G, U251, U87, C6, U353 and MO59K), prostate (DU145 and PC3) melanoma (Mel5 and M21) and colon (DLD-1, HT29) cell lines were treated with medium or with 1 mM of POH dissolved in medium for 72 hours. The cells were harvested, fixed stained with propidium iodide and analyzed by flow cytometry to estimate the various phases of the cell cycle. Each point on the graph represents mean values of duplicate dishes.

[5] = test system: glioma and prostate cancer cell lines; test: Augmentation of CD95 (Fas)-mediated apoptosis with anti-CD95 antibody CH11; format: cell-based; settings: T98G, U87, U353, U251; 1 mM POH with CH11, absence of cycloheximide
Procedure: Referring to FIG. 25, semiconfluent cultures of glioma and prostate cancel cell lines were treated with the 1 mM POH in the presence or absence of the anti-CD95 antibody CH11 (100 ng/ml), radiation (8.5 Gy for T98G, U87MG, U373 and 5.5 Gy for PC3 and DU145), cycloheximide (CX) or a combination of all for a period of 72 hours. Cells treated with cycloheximide and anti-Fas served as a positive control. The death by treating cells with 1 mM POH or radiation alone was also quantitated. The estimation of apoptosis was done by staining the harvested cells with propidium iodide as described before. Each graphed point in the figure represents the average values of duplicate samples.

rat mammary carcinoma = settings: cited from earlier work; for regression of rat mammary carcinoma: dietary administration

Structure (SMILES): C=C(C)[C@@H]1CC=C(CO)CC1 [POH, Perillyl alcohol]
- radiosensitization (MO59K cells; M059K, cells not initially radiation resistant, 0.1–0.5 mM POH 72 h): lack of radiosensitization
- % SURVIVAL (MO59K cells; 0.1 mM POH 72 h, no radiation): 0.939 ± 0.005%
- % SURVIVAL (MO59K cells; 0.1 mM POH + 5.5 Gy): 0.061 ± 0.007%
- % SURVIVAL (MO59K cells; 0.3 mM POH 72 h, no radiation): 0.660 ± 0.020%
- % SURVIVAL (MO59K cells; 0.3 mM POH + 5.5 Gy): 0.080 ± 0.015%
- % SURVIVAL (MO59K cells; 0.5 mM POH 72 h, no radiation): 0.623 ± 0.009%
- % SURVIVAL (MO59K cells; 0.5 mM POH + 5.5 Gy): 0.056 ± 0.006%
- plasma levels of terpene metabolites [1]: 820 µM
- levels of the Fas receptor (Fas receptor): did not alter
- sensitization to cisplatin-induced cell death (T98G cells): dose-dependent sensitization
- function of Fas Ligand on treated T98G towards Jurkat cells [2]: brought about cell death
- % SURVIVAL (DLD-1 colon cancer cells; 0.1 mM POH 72 h, no radiation): 1.690 ± 0.100%
- % SURVIVAL (DLD-1 colon cancer cells; 0.1 mM POH + 5.5 Gy): 0.038 ± 0.009%
- % SURVIVAL (DLD-1 colon cancer cells; 0.3 mM POH 72 h, no radiation): 0.899 ± 0.070%
- % SURVIVAL (DLD-1 colon cancer cells; 0.3 mM POH + 5.5 Gy): 0.050 ± 0.003%
- % SURVIVAL (DLD-1 colon cancer cells; 0.5 mM POH 72 h, no radiation): 0.019 ± 0.001%
- % SURVIVAL (DLD-1 colon cancer cells; 0.5 mM POH + 5.5 Gy): 0.001 ± 0.001%
- effect of higher concentrations on tumor cell lines ([3]; 1 mM POH): cell death via apoptosis
- toxicity to tumor cell lines ([3]; clinically relevant doses 0.1 mM–0.5 mM): relatively non-toxic
- cell cycle effect ([4]; MO59K): G0/G1 block
- cell cycle effect ([4]; all the cell lines except MO59K): block in the G2/M phase
- sensitization to Fas mediated apoptosis [5]: sensitized
- potency at inducing tumor regression relative to limonene (rat mammary carcinoma; dietary): greater than five times more potent than limonene
- regression of rat mammary carcinoma (rat mammary carcinoma; induced by DMBA): 84%
- regression of rat mammary carcinoma (rat mammary carcinoma; induced by NMU): 60%
